Data reported in patent publication US12472226B2, “Cell-permeable peptide” (priority 2019, dated 2025).
Non-standard residues stand in square brackets, D forms with d. Primed or numbered codes have the meaning given here. No end group written: not given here. *: point of attachment. FITC = O=C1OC2(c3ccc(O)cc3Oc3cc(O)ccc32)c2ccc(NC(=S)*)cc21; PEG4′ = not defined here; PEG5′ = not defined here; Ahx = NCCCCCC(=O)O

What was measured:
HT-1080 cells [1] = experiment: Test of inducing cell-death in vitro (Calcein-AM/PI dead cell rate); assay type: cell-based, human; conditions: 9th day
From the text: Human fibrosarcoma-derived HT-1080 cells (HT-1080 cells, JCRB cell bank) were used as cancer cells in the test for monitoring changes in mitochondrial membrane potential. HT-1080 cells, human osteosarcoma cell line Hos cells (Hos cells, JCRB cell bank), human histiocytic lymphoma/macrophage U937 cells (U937 cells, JCRB cell bank), human myeloid leukemia HL-60 cells (HL-60 cells, JCRB cell bank), acute monocytic leukemia THP-1 cells (THP-1 cells, JCRB cell bank), human alveolar basal epithelial adenocarcinoma cell A549 cells (A549 cells, Cell Resource Center for Biomedical Research, Institute of Development, Aging and Cancer, Tohoku University), human pancreatic carcinoma cells (MIA Paca 2 cells, Cell Resource Center for Biomedical Research, Institute of Development, Aging and Cancer, Tohoku University) and well differentiated human liver carcinoma-derived cell line HuH7 cells (HuH7 cells, Cell Resource Center for Biomedical Research, Institute of Development, Aging and Cancer, Tohoku University) were used as cancer cells in an in vitro cell-death induction test of cancer cells and a nuclear transport test of Example 2. Normal human gingival fibroblast cells Gin-1 (Gin-1 cells, DS Pharma Biomedical) were used as a control. The above-described cells were each inoculated into a 96-well culture plate (Falcon) at 5,000 cells/[…] and subjected to the following tests.
The peptide of SEQ ID NO: 1 labeled with FITC (Example 2) was used for the test of inducing cell-death in vitro in cancer cells. It was prepared the test example to which 100 μL of Example 2 and further 10% FBS were added and cultured for 9 days under conditions of 200 μL of serum-supplemented medium (Alpha modification of Eagle's MEM (α-MEM) (Thermo Fisher Scientific)+10% FBS). Furthermore, it was also produced the test example that was cultured for 21 days with the whole amount of Example 2-supplemented medium replaced every 7 days. As a control, the cells were cultured in a serum-supplemented medium (α-MEM+10% FBS) without addition and were used. A supernatant was removed after the completion of the culture. The cells were washed once with PBS and stained in PBS to which a fluorescent dye for living cell staining Calcein-AM (DOJINDO LABORATORIES) (final concentration: 0.1 μg/mL) and a fluorescent dye for dead cell staining Propidium Iodide (PI) (DOJINDO LABORATORIES) (final concentration: 0.3 μg/mL) were added, at 37° C. in a 5% CO2 cell incubator for 30 minutes. The living cells and dead cells were separately stained with Calcein-AM and PI, respectively and imaged with the confocal laser scanning microscope LSM800. Next, the dead cell rate relative to the number of total cells was analyzed using ImageJ.
The results are represented by the average value of the dead cell rate (the number red cells stained with IP/the number of total cells×100(%))±standard deviation (SD). In FIG. 2A, the vertical axis represents the rate of cell death when each cell was cultured with Example 2 (50 μg/mL) for 9 days and the horizontal axis represents various types of cells. The increase in the dead cell rate of the Gin-1 cells was not observed.
The concentrations of Examples 2 and 4 to 6 were adjusted to 12.5, 25, 50 and 100 μg/mL, respectively and then administrated to the HT-1080 cells for 9 days tested by the same method as in Test Example 2A. The cell staining and subsequent analyses of the dead cell rate relative to the number of total cells were performed in the same manner as Test Example 2A.

HT-1080 cells tumor = experiment: Delivery test on anticancer agent in tumor-bearing mice; assay type: in vivo, BALB/c nude mouse
Procedure: HT-1080 cells (1×10^7 cells/200 μL) were subcutaneously implanted into the back of 5 week-old BALB/c nude mouse (CHARLES RIVER LABORATORIES JAPAN, INC.). A tumor after the implantation was confirmed to reach 30 to 60 mm^3, and then they were subjected to the following tests.
Example 2 was dissolved in the sterile water and adjusted to be 200 μg/200 μL by the addition of 2-time concentrated α-MEM (not containing glutamine or an antibiotic). It was intraperitoneally administered to tumor-bearing mice at 10 mg/kg every 3 days. In the control administration group, 200 μL of 1-time concentrated α-MEM was intraperitoneally administered to tumor-bearing mice every 3 days. The mice were weighed on DRETEC weighing scale (DRETEC CO., Ltd., Japan) and the tumor size (estimation volume (shortest diameter×longer diameter×height×pi/6 mm^3)) was measured with a vernier caliper (maximum: 150 mm, minimum: 0.05 mm) (MITUTOYO, Japan) every 3 days.
Example 3 and Comparative Example 4 (Dox) were treated to be at 5 or 1.2 mg/kg, respectively in the same manner as that of Example 2, and administered to the tumor-bearing mice. The tumor size was measured by the same procedure as above.
FIG. 7 is a graph illustrating transitions of tumor size in the control (N=2), Comparative Example 4(N=2) and Example 3 administration group (N=2). The vertical axis represents the average value of tumor size±standard deviation (SD) and the horizontal axis represents the days after administration. […] The tumor size day 24 grew to about 2,000 mm^3 in the control and Comparative Example 4 administration group. […] That is, the tumors largely shrank due to not only anticancer effect of the peptide itself but also the effect of the anticancer agent. The peptides of the present invention specifically act on the target cells compared with the single administration of the anticancer agent and have high toxicity against the cancer cells.

HT-1080 cells [2] = experiment: Test of monitoring changes in mitochondrial membrane potential (JC-1 apoptosis rate); assay type: cell-based, human; conditions: 7 days, Example 1 at 25, 50 and 100 μg/mL, Comparative Examples at 50 and 100 μg/mL
Procedure: (§1) Human fibrosarcoma-derived HT-1080 cells (HT-1080 cells, JCRB cell bank) were used as cancer cells in the test for monitoring changes in mitochondrial membrane potential. […]
(§2) The synthetic peptide of Example 1 or Comparative Examples 1 to 3 was individually added to the HT-1080 cells, and the cells were cultured in a serum-supplemented medium (α-MEM+10% FBS). […] Further, the cells were washed once with PBS followed by the addition of 100 μL of PBS, scanned with a confocal laser scanning microscope LSM800 (Zeiss) and then analyzed with ImageJ. […]

Gin-1 cells = experiment: Test of monitoring changes in mitochondrial membrane potential (JC-1 apoptosis rate), normal cells; assay type: cell-based, human; conditions: 50 μg/mL
Procedure: as §1, §2

For “Example 5: peptide of SEQ ID NO: 2 labeled with FITC via an Ahx linker at the N-terminus ({FITC}-[Ahx]KDNRGNLLQCICTGNGRGEWKC; cysteine pairing not given here)”, the dead cell rate (HT-1080 cells [1]; 50 or 100 μg/mL) was ≥ 50%.
With `COc1cccc2c1C(=O)c1c(O)c3c(c(O)c1C2=O)C[C@@](O)(C(=O)CO)C[C@@H]3O[C@H]1C[C@H](N)[C@H](O)[C@H](C)O1` [Comparative Example 4, Doxorubicin, reference compound] the tumor size (HT-1080 cells tumor; 1.2 mg/kg, day 24, N=2) was “about 2,000 mm^3”.
For “KDNRGNLLQCVCTGNGRGEWKC (This is derived from a part of CD ligand.; BINDING (3)..(6); BINDING (13)..(17)) [Example 1]”, the “increase in apoptosis rate (number of green cell dyed with JC1/number of total cells)” value (HT-1080 cells [2]) was “increase in apoptosis rate of the HT-1080 cells was confirmed” and the “increase in apoptosis rate” value (Gin-1 cells) was “not observed”.
With “Example 6: peptide of SEQ ID NO: 6 labeled with FITC via an Ahx linker at the N-terminus ({FITC}-[Ahx]KHGLYNLKQCKMSLNGQRGECWC; cysteine pairing not given here)” the dead cell rate (HT-1080 cells [1]; 12.5 μg/mL substantially same as 100 μg/mL) was “about 35%”.
For “Example 3 ({doxorubicin-PEG5′-DBCO‑azide-PEG4′}-KDNRGNLLQCVCTGNGRGEWKC; cysteine pairing not given here)”, the “suppression of tumor proliferation compared with the control and Comparative Example 4 administration group” value (HT-1080 cells tumor; 5 mg/kg, between days 18 and 24, N=2) was “significant difference at the level of 1%” and the “suppression effect on tumor” value (HT-1080 cells tumor; 5 mg/kg, to the day 24) was “suppression effect was confirmed”.
